Assay: Tissue distribution study after oral administration
Assay type: in vivo, C57BL/6J mice
Settings: for Time of highest tissue level: oral
Method: The frozen mice plasma samples and tissue homogenates were thawed at room temperature, vortexed for 1 min, then taken out in 10-μl aliquots in a 1.50-ml centrifuge tube, and this was then mixed with 1 μl of standard solution and 50 μl of internal standard (IS) solution, which was then dissolved and diluted with acetonitrile. Subsequently, it was vortexed for 3 min and at 14,000 rpm centrifugation for 5 min. The adopted 1 μl of the supernatant was used for sample injection analysis.
A total of 24 male C57/BL6J mice were divided into 4 groups at random, with 6 mice in a group for tissue distribution at 0.25, 1, 6, and 24 h. They were given YWS01125 after oral administration of 20 mg/kg, and then sacrificed at 0.25, 1, 6, and 24 h. Tissues from the heart, liver, spleen, lungs, kidneys, stomach, small intestine, colon, fat, muscle, testes, and brain were taken and rinsed with saline solution to remove the blood and connective tissues ([Geng et al., 2015]; [He et al., 2017]; [Jiang et al., 2017]), then put on the filter paper and weighed, quickly. Each tissue sample was homogenized by using five times of the tissue weight saline (w/v). All homogenates were stored at−80 °C until analysis.
The tissue distributions of YWS01125 were investigated in C57BL/6J mice at 0.25, 1, 6, and 24 h after oral administration. The examined organs or tissues included the heart, liver, spleen, lungs, kidneys, stomach, small intestine, colon, fat, muscle, testes, and brain. The linear ranges, correlation coefficients, weight factors, and regression equations for all analytes in the mouse plasma and tissue homogenates are shown in Table 5. The concentration of each tissue at 0.25 h is indicated as stomach > kidneys > liver > colon > small intestine > testes > heart > spleen > lungs > fat; concentration of each tissue at 1 h is small intestine > colon > liver > stomach > kidneys > lungs > heart > fat > testes; concentration of each tissue at 6 h is small intestine > colon > stomach > liver > kidneys > heart; and concentration of each tissue at 24 h is that the whole tissues were not detected (Table 6). […] The content of the compound in the stomach was much higher than that in any other organ. The highest levels were reached 0.25 h after oral administration, then decreased thereafter. For the heart, liver, kidneys, lungs, small intestine, colon, and fat, the highest level was reached 1 h after oral administration, and it reached the highest levels at 0.25 h in the spleen, stomach, and testes.

[1] = after oral administration, all time points

N#Cc1cn(-c2cc(Cl)c(Oc3cc(C4CCC4)c(=O)[nH]n3)c(Cl)c2)c(=O)[nH]c1=O [YWS01125, 1-(3,5-dichloro-4-((5-cyclobutyl-6-oxo-1,6-dihydropyridazin-3-yl)oxy)phenyl)-2,4-dioxo-1,2,3,4-tetrahydropyrimidine-5-carbonitrile]
Concentration in the brain [1]: not detected
Concentration in the muscle [1]: not detected
Time of highest tissue level (heart, liver, kidneys, lungs, small intestine, colon, fat): 1 h
Colon tissue concentration (oral 20 mg/kg, 15 min): 46.70 ± 2.27
Fat tissue concentration (oral 20 mg/kg, 15 min): 9.37 ± 0.88
Heart tissue concentration (oral 20 mg/kg, 15 min): 7.00 ± 1.05
Kidneys tissue concentration (oral 20 mg/kg, 15 min): 129.83 ± 18.31
Liver tissue concentration (oral 20 mg/kg, 15 min): 69.93 ± 11.25
Lungs tissue concentration (oral 20 mg/kg, 15 min): 5.51 ± 1.22
Small intestine tissue concentration (oral 20 mg/kg, 15 min): 31.30 ± 6.38
Spleen tissue concentration (oral 20 mg/kg, 15 min): 6.26 ± 0.60
Stomach tissue concentration (oral 20 mg/kg, 15 min): 378.67 ± 36.89
Testes tissue concentration (oral 20 mg/kg, 15 min): 15.37 ± 2.15
Colon tissue concentration (oral 20 mg/kg, 1 h): 357.67 ± 35.31
Fat tissue concentration (oral 20 mg/kg, 1 h): 8.69 ± 1.45
Heart tissue concentration (oral 20 mg/kg, 1 h): 14.41 ± 5.97
Kidneys tissue concentration (oral 20 mg/kg, 1 h): 230.50 ± 15.53
Liver tissue concentration (oral 20 mg/kg, 1 h): 283.67 ± 40.72
Lungs tissue concentration (oral 20 mg/kg, 1 h): 60.76 ± 4.97
Small intestine tissue concentration (oral 20 mg/kg, 1 h): 373.00 ± 33.88
Stomach tissue concentration (oral 20 mg/kg, 1 h): 247.17 ± 24.96
Testes tissue concentration (oral 20 mg/kg, 1 h): 6.08 ± 4.70
Colon tissue concentration (oral 20 mg/kg, 6 h): 60.23 ± 3.87
Heart tissue concentration (oral 20 mg/kg, 6 h): 4.01 ± 1.27
Kidneys tissue concentration (oral 20 mg/kg, 6 h): 12.73 ± 1.65
Liver tissue concentration (oral 20 mg/kg, 6 h): 16.63 ± 1.72
Small intestine tissue concentration (oral 20 mg/kg, 6 h): 61.03 ± 4.06
Stomach tissue concentration (oral 20 mg/kg, 6 h): 54.49 ± 10.20
Time of highest tissue level (spleen, stomach, testes): 0.25 h

From PMC9127185, “A Pyridazinone Compound for Effectively Treating Non-alcoholic Steatohepatitis by Targeting THRβ” (Frontiers in Chemistry, 2022)
